In ChEMBL document CHEMBL5034012, “Procainamide-SAHA Fused Inhibitors of hHDAC6 Tackle Multidrug-Resistant Malaria Parasites” (J Med Chem, 2021) one finds Activity data, which are given here for one molecule.

SMILES strings stand for the structures.

The subject of the assay is Plasmodium falciparum. In words: Antiplasmodial activity against Plasmodium falciparum NF54 assessed as reduction in growth in intraerythrocytic development cycle at 3 to 10 times of IC50 concentration incubated for 24 to 36 hrs measured after 72 hrs of post synchronization by SYBR Green 1 assay. In kind it is functional. Further details: scale not given: the % may be the effect or the level left. Particulars: time 24-36 hrs.

Regarding `CCN(CC)CCNC(=O)c1ccc(NC(=O)CCCCCCC(=O)NO)cc1`, the Activity entry is on record as “<=85%”.
